# Source: patent US8173636B2, “Hydroxylthienoquinolones and related compounds as anti-infective agents” (Achillion Pharmaceuticals, Inc., priority 2009, dated 2012)
# Key:
# S. aureus ATCC 29213 = test: Minimum inhibitory concentration (MIC) assay, broth microdilution, MSSA; type: cell-based; settings: Staphylococcus aureus, Table I
# Procedure: (§1) The antimicrobial activity of the compounds of the invention may be evaluated by a number of methods, including the following visual minimum inhibitory concentration (MIC) assay. This assay determines the minimum concentration of compound required to inhibit growth of a bacterial strain.
# (§2) Whole-cell antibacterial activity is determined by broth microdilution using conditions recommended by the NCCLS (see National Committee for Clinical Laboratory Standards. 2001. Performance standards for antimicrobial susceptibility testing: 11th informational supplement. Vol. 21, no. 1, M100-S11. National Committee for Clinical Laboratory Standards, Wayne, Pa.). Test compounds are dissolved in DMSO and diluted 1:50 in Mueller-Hinton II broth (Becton-Dickinson) to produce a 256 μg/ml stock solution. In a 96-well microtiter plate, the compound solution is serially two-fold diluted in Mueller-Hinton II broth. After the compounds are diluted, a 50 μl aliquot of the test organism (˜1×10^6 cfu/mL) is added to each well of the microtiter plate. The final test concentrations ranges from 0.125-128 μg/mL. Inoculated plates are incubated in ambient air at 37° C. for 18 to 24 hours. The organisms selected for testing included laboratory strains S. aureus ATCC 29213 and E. coli ATCC 25922 (strains purchased from American Type Culture Collection, Manassas, Va.) m, S. aureus FQR700699, and Paeruginosa 27853. The minimum inhibitory concentration (MIC) is determined as the lowest concentration of compound that inhibited visible growth of the test organism.
# [1] = test system: fluoroquinolone-resistant S. aureus ATCC 700699; test: Minimum inhibitory concentration (MIC) assay, broth microdilution, MRSA; type: cell-based; settings: Staphylococcus aureus; fluoroquinolone-resistant S. aureus ATCC 700699; Table I; read-out: MRSA MIC
# Procedure: as §1, §2
SMILES,MIC (S. aureus ATCC 29213) [µg/mL],MIC [1] [µg/mL]
"COC(=O)c1sc2c(c1O)c(=O)c1cc(F)c(N3CCNCC3)c(OC)c1n2C1CC1 [Cmp 7, methyl 9-cyclopropyl-6-fluoro-3-hydroxyl-8-methoxy-4-oxo-7-(piperazin-1-yl)-4,9-dihydrothieno[2,3-b] quinoline-2-carboxylate]",3,32
"COc1c(N2CC[C@@H](C(C)(C)N)C2)ccc2c(=O)c3c(O)c(C#N)sc3n(C3CC3)c12 [Cmp 2, (R)-7-(3-(2-aminopropan-2-yl)pyrrolidin-1-yl)-9-cyclopropyl-3-hydroxyl-8-methoxy-4-oxo-4,9-dihydrothieno[2,3-b]quinoline-2-carbonitrile]",0.06,0.42
"COc1c(N2CCNCC2)c(F)cc2c(=O)c3c(O)c(C(=O)C(C)(C)C)sc3n(C3CC3)c12 [Cmp 12, 9-cyclopropyl-6-fluoro-3-hydroxyl-8-methoxy-7-(piperazin-1-yl)-2-pivaloylthieno[2,3-b]quinolin 4(9H)-one]",8,8
"N#Cc1sc2c(c1O)c(=O)c1cc(F)c(N3CCNCC3)c(OC(F)F)c1n2C1CC1 [Cmp 3, 9-cyclopropyl-8-(difluoromethoxy)-6-fluoro-3-hydroxyl-4-oxo-7-(piperazin-1-yl)-4,9-dihydrothieno[2,3-b]quinoline-2-carbonitrile]",0.25,4
"COc1c(N2CC[C@H](O)C2)c(F)cc2c(=O)c3c(O)c(C#N)sc3n(C3CC3)c12 [Cmp 23, (S)-9-cyclopropyl-6-fluoro-3-hydroxyl-7-(3-hydroxyl-pyrrolidin-1-yl)-8-methoxy-4-oxo-4,9-dihydrothieno [2,3-b]quinoline-2-carbonitrile]",0.03,0.5
"CCC(=O)c1sc2c(c1O)c(=O)c1cc(F)c(N3CC[C@@H](C(C)(C)N)C3)c(OC)c1n2C1CC1 [Cmp 62, (R)-7-(3-(2-aminopropan-2-yl)pyrrolidin-1-yl)-9-cyclopropyl-6-fluoro-3-hydroxyl-8-methoxy-2-propionylthieno [2,3-b]quinolin-4(9H)-one]",0.5,1
"COc1c(N2CC[C@@H](C(C)(C)N(C)C)C2)c(F)cc2c(=O)c3c(O)c(C#N)sc3n(C3CC3)c12 [Cmp 36, (R)-9-cyclopropyl-7-(3-(2-(dimethylamino)propan-2-yl)pyrrolidin-1-yl)-6-fluoro-3-hydroxyl-8-methoxy-4-oxo-4,9-dihydrothieno[2,3-b]quinoline-2-carbonitrile]",0.25,2
"COc1c(N2CCC[C@H]2C(N)=O)c(F)cc2c(=O)c3c(n(C4CC4)c12)SC(C#N)C3=O (stereo partly drawn) [Cmp 46, (2S)-1-(2-cyano-9-cyclopropyl-6-fluoro-8-methoxy-3,4-dioxo-2,3,4,9-tetrahydrothieno[2,3-b]quinolin-7-yl)pyrrolidine-2-carboxamide]",4,64
"CCNC(C)(C)[C@@H]1CCN(c2c(F)cc3c(=O)c4c(O)c(C#N)sc4n(C4CC4)c3c2OC)C1 [Cmp 35, (R)-9-cyclopropyl-7-(3-(2-(ethylamino)propan-2-yl)pyrrolidin-1-yl)-6-fluoro-3-hydroxyl-8-methoxy-4-oxo-4,9-dihydrothieno [2,3-b]quinoline-2-carbonitrile]",0.06,0.5
"COc1c(-c2ccnc(N3CCNCC3)c2)c(F)cc2c(=O)c3c(n(C4CC4)c12)SC(C#N)C3=O (centres unmarked) [Cmp 50, 9-cyclopropyl-6-fluoro-8-methoxy-3,4-dioxo-7-(2-(piperazin-1-yl)pyridin-4-yl)-2,3,4,9-tetrahydrothieno [2,3-b]quinoline-2-carbonitrile]",0.06,1
"COc1c(N2CC[C@@H]([C@H](C)N)C2)c(F)cc2c(=O)c3c(O)c(C#N)sc3n(C3CC3)c12 [Cmp 11, 7-((R)-3-((S)-1-aminoethyl)pyrrolidin-1-yl)-9-cyclopropyl-6-fluoro-3-hydroxyl-8-methoxy-4-oxo-4,9-dihydrothieno[2,3-b] quinoline-2-carbonitrile]",0.02,0.094
"COc1c(N2CCCC(=C(F)CN)C2)c(F)cc2c(=O)c3c(O)c(C(C)=O)sc3n(C3CC3)c12 [Cmp 66, 2-acetyl-7-(3-(2-amino-1-fluoroethylidene)piperidin-1-yl)-9-cycloprop-6-fluoro-3-hydroxyl-8-methoxythieno[2,3-b] quinolin-4(9H)-one]",0.25,0.5
"COc1c(N2CC[C@H](N)C2)c(F)cc2c(=O)c3c(O)c(C#N)sc3n(C3CC3)c12 [Cmp 22, (S)-7-(3-aminopyrrolidin-l-yl)-9-cyclopropyl-6-fluoro-3-hydroxyl-8-methoxy-4-oxo-4,9-dihydrothieno[2,3-b]quinoline-2-carbonitrile]",0.03,0.25
"COc1c(N2CC[C@@H](C(C)(C)N)C2)c(F)cc2c(=O)c3c(O)csc3n(C3CC3)c12 [Cmp 6, (R)-7-(3-(2-aminopropan-2-yl)pyrrolidin-1-yl)-9-cyclopropyl-6-fluoro-3-hydroxyl-8-methoxythieno[2,3-b]quinolin-4(9H)-one]",2,32
"COc1c(N2C[C@@H]3CCCN[C@@H]3C2)c(F)cc2c(=O)c3c(O)c(C#N)sc3n(C3CC3)c12 [Cmp 38, 9-cyclopropyl-6-fluoro-3-hydroxyl-8-methoxy-4-oxo-7-((4aS,7aS)-tetrahydro-1H-pyrrolo[3,4-b]pyridin-6(2H,7H,7aH)-yl)-4,9-dihydrothieno[2,3-b]quinoline-2-carbonitrile]",0.5,8
COc1c(C2=CCNCC2)c(F)cc2c(=O)c3c(O)c(C#N)sc3n(C3CC3)c12 [Cmp 40],0.5,4
"COc1c(N2CCNCC2)ccc2c(=O)c3c(O)c(C#N)sc3n(C3CC3)c12 [Cmp 19, 9-cyclopropyl-3-hydroxyl-8-methoxy-4-oxo-7-(piperazin-1-yl)-4,9-dihydrothieno[2,3-b]quinoline-2-carbonitrile]",0.25,4
"COc1c(N2C[C@H]3CNC[C@H]3C2)c(F)cc2c(=O)c3c(O)c(C#N)sc3n(C3CC3)c12 [Cmp 42, 9-cyclopropyl-6-fluoro-7-((3aR,6aS)-hexahydropyrrolo [3,4-c]pyrrol-2(1H)-yl)-3-hydroxyl-8-methoxy-4-oxo-4,9-dihydrothieno[2,3-b]quinoline-2-carbonitrile]",0.25,1
"CNC(C)(C)[C@@H]1CCN(c2c(F)cc3c(=O)c4c(O)c(C#N)sc4n(C4CC4)c3c2OC)C1 [Cmp 34, (R)-9-cyclopropyl-6-fluoro-3-hydroxyl-8-methoxy-7-(3-(2-(methylamino)propan-2-yl)pyrrolidin-1-yl)-4-oxo-4,9-dihydrothieno[2,3-b]quinoline-2-carbonitrile]",0.06,0.5
"COC(=O)c1sc2c(c1O)c(=O)c1cc(F)c(N3CC[C@@H](C(C)(C)N)C3)c(OC)c1n2C1CC1 [Cmp 5, (R)-methyl 7-(3-(2-aminopropan-2-yl)pyrrolidin-1-yl)-9-cyclopropyl-6-fluoro-3-hydroxyl-8-methoxy-4-oxo-4,9-dihydrothieno [2,3-b]quinoline-2-carboxylate]",2,64
"COc1c(N2CCC(C(N)=O)CC2)c(F)cc2c(=O)c3c(n(C4CC4)c12)SC(C#N)C3=O (centres unmarked) [Cmp 45, 1-(2-cyano-9-cyclopropyl-6-fluoro-8-methoxy-3,4-dioxo-2,3,4,9-tetrahydrothieno[2,3-b]quinolin-7-yl)piperidine-4-carboxamide]",0.03,0.5
"COc1c(N2CC[C@@H]([C@H](C)NCCF)C2)c(F)cc2c(=O)c3c(O)c(C#N)sc3n(C3CC3)c12 [Cmp 1, 9-cyclopropyl-6-fluoro-7-((R)-3-((S)-1-(2-fluoroethylamino)ethyl)pyrrolidin-1-yl)-3-hydroxyl-8-methoxy-4-oxo-4,9-dihydrothieno[2,3-b]quinoline-2-carbonitrile]",0.02,0.13
"COc1c(N2C[C@@H]3CCCN[C@@H]3C2)ccc2c(=O)c3c(O)c(C#N)sc3n(C3CC3)c12 [Cmp 27, 9-cyclopropyl-3-hydroxyl-8-methoxy-4-oxo-7-((4aS,7aS)-tetrahydro-1H-pyrrolo[3,4-b]pyridin-6(2H,7H,7aH)-yl)-4,9-dihydrothieno[2,3-b]quinoline-2-carbonitrile]",0.5,8
"COc1c(N2CC3CC2CN3)c(F)cc2c(=O)c3c(O)c(C#N)sc3n(C3CC3)c12 (centres unmarked) [Cmp 41, 7-(2,5-diazabicyclo[2.2.1]heptan-2-yl)-9-cyclopropyl-6-fluoro-3-hydroxyl-8-methoxy-4-oxo-4,9-dihydrothieno [2,3-b]quinoline-2-carbonitrile]",0.13,1
"COc1c(N2CC[C@@H](C(C)(C)N)C2)c(F)cc2c(=O)c3c(O)c([N+](=O)[O-])sc3n(C3CC3)c12 [Cmp 13, (R)-7-(3-(2-aminopropan-2-yl)pyrrolidin-1-yl)-9-cyclopropyl-6-fluoro-3-hydroxyl-8-methoxy-2-nitrothieno[2,3-b] quinolin-4(9H)-one]",8,32
